Measured values published in patent US20150359798A1, “PIPERAZINYL DERIVATIVE REDUCES HIGH-FAT DIET-INDUCED ACCUMULATION OF FAT IN THE LIVERS, […]” (priority 2011, published 2015).

Key:
HMG CoA reductase = HMG CoA reductase expression in liver of HFD mice (8 weeks); type: in vivo; details: KMUP-1 HCl 2.5, 5 mg/kg, simvastatin 5 mg/kg
Procedure: In the 8 week experiment, C57BL/6J male mice (21-22 g), after fasting, were fed a HFD as a model of hyperlipidemia for 8 weeks. During the 2 month experiments, mice fasted for one night before the experiment was changed from a standard diet (STD) to a HFD and then the mice were randomly divided into 5 groups, including 2 control and 3 treatment groups. Six mice were used in each group. […]
The obtained protein extract was boiled to a ratio of 4:1 with a sample buffer (Tris 100 mM, pH 6.8, glycerol 20%, SDS 4% and bromophenol blue 0.2%). Electrophoresis was performed using 10% SDS-polyacrylamide gel (1 hour, 100 V, 40 mA, 20 μg protein per lane).
The blot was then incubated with anti-mouse or anti-goat IgG linked to alkaline phosphatase (1:1000) for 1 hour.

eNOS = test: Table 4 eNOS (% of control); type: cell-based; details: control group = 100 (%)
PDE-5A = test: Table 4 PDE-5A (% of control); type: cell-based; details: control group = 100 (%)
mice fed a HFD = test: HFD-fed mice, 14-week experiment: body weight, liver morphology, H&E, oil globulets; type: in vivo
Procedure: In the 14-week experiment, mice were fed a HFD from week 1 to week 14. During the 3 month experiments, KMUP-1 HCl (2.5 mg) was added to 200 ml tap water and) and drink for 14 weeks or for the last 6 weeks on mice or obese mice fed HFD, separately. 5 mice had free access to drinking water from week 1 to week 14 (protective group) or from week 8 to week 14 (treatment group). Tap water was used to normalize mineral nutrition (Scheme A).
The diameter of the white bar in the photograph was standardized at 100 μM for measuring the specific diameter of oil globulets in a whole liver slice, observed by microscope, with the aid of Powerpoint PC computer software (Microsoft®, USA) and printed out by a Hewlett-Packard® printer (USA). An increase in oil globulet diameter and cell number indicated increasing liver steatosis, i.e. steaotohepatitis. In contrast, decrease in diameter and the number of fat cells indicated the inhibition of steaotohepatitis. […] Hematoxylin-eosin (H&E) and […] staining of liver were used to assess oil globulet numbers under a microscope.
Mice liver and epididymal fat pads were cut and soaked in formalin, dehydrated through graded alcohols and embedded in paraffin. Specimens of liver tissues and epididymal fat pads fixed with formalin (4%) were embedded in paraffin for one hour at 4° C., cut into […] sections, and subjected to H&E staining before examination by light microscope. In heart tissues, the 4-μm-thick paraffin sections were cut from paraffin-embedded tissue blocks and de-paraffinized by immersion in xylene and rehydrated. The slices were then dyed with H&E. After gently rinsing with water, each slide was dehydrated through graded alcohols and finally soaked in xylene twice.
Hematoxylin-eosin (H&E) and IHC staining of liver were used to assess oil globulet numbers under a microscope. A 100 μM white bar was used to determine oil globule sizes in the liver. Oil globulets in a cell were counted from larger to smaller until size limitations were reached. Increases of oil globulet diameter and number indicated increasing liver steatosis. In contrast, a decrease in oil globulet diameters and numbers could indicate the inhibition of liver steatosis. Oil globulets were measured using a Nikon Eclipse TE200-S microscope, aided by Powerpoint computer software (Microsoft®) and printed by a HP® printer to measure the diameter and number of oil globulets on paper. Counting: of oil globules was performed from larger to smaller ones until the observation reached its limit.

ROCKII = test: Table 4 ROCKII (% of control); type: cell-based; details: control group = 100 (%)
mice fed with HFD = test: HFD-fed mice, 8 weeks, gavage: serum/liver lipids, body weight, food intake; type: in vivo; details: for HDL chol. / LDL chol. / TG / Tot. chol.: Table 2, mice
Procedure: In the 8 week experiment, C57BL/6J male mice (21-22 g), after fasting, were fed a HFD as a model of hyperlipidemia for 8 weeks. During the 2 month experiments, mice fasted for one night before the experiment was changed from a standard diet (STD) to a HFD and then the mice were randomly divided into 5 groups, including 2 control and 3 treatment groups. Six mice were used in each group. […] Liver from the protection group supplemented with KMUP-1 HCl (1 mg/kg/day) were used to determine the HMG CoA reductase expression.
Within 2 months, the 3 day food intake average for each animal was measured. The weight gain and plasma lipid levels of each group were determined and compared to the non-treatment control group. Mouse blood was collected during the daytime by cardiac puncture followed by centrifugation at 90 g (Benchtop Centrifuge, U.S.A.) to separate the serum, and frozen at −80° C., for biochemical analysis using a Hitachi Clinical Analyzer 7070 (Hitachi High-Technologies Co. Tokyo, Japan). Agents used in the assays were Obtained from Merck & Co. (Kenilworth, N.J., U.S.A.). Triglyceride (TG), total cholesterol, HDL cholesterol and LDL cholesterol in mouse serum were measured by methods used in the clinic. To measure the hepatic TG, isolated liver were cut into small chips.

LDLRs = test: IHC staining of LDLRs in liver; type: in vivo, mice; details: drinking KMUP-1 HCl; HFD; protection and treatment groups
Procedure: Liver tissues were fixed in 10% buffered formalin for 24 hours and then embedded in paraffin. The paraffin-embedded liver tissue sections (4 μm thick) were first heat immobilised and deparaffinised using xylene and then rehydrated in a graded series of ethanol, followed by a final wash in distilled water. Finally, tissue sections were stained with PAS and Mayer's hematoxylin solution.
For IHC of hepatic LDLRs in the animals that drink the KMUP-1 HCl (2.5 mg/200 mL for 1-14 weeks or 8-14 weeks), antigen retrieval of de-paraffinated sections was performed in Dako target retrieval solution, pH 9.0, in a vegetable steamer followed by the quenching of endogenous peroxidase activity with 3.0% H2O2 in methanol. Sections were then incubated with specific primary antibodies overnight at 4° C. in a humidified chamber. The sections were then examined using a DAKO REAL EnVision™ Detection System kit (DAKO, Carpinteria, Calif., U.S.A.) and counterstained with hematoxylin. Images were obtained through a Nikon Eclipse TE200-S microscope.

In the case of `Cl.Cn1c(=O)c2c(ncn2CCN2CCN(c3ccccc3Cl)CC2)n(C)c1=O` [KMUP-1 HCl, 7-[2-[4-(2-chlorophenyl)piperazinyl]ethyl]-1,3-dimethylxanthine HCl complex], the “HFD-induced downregulation of HMG-CoA reductase expression in liver” value (HMG CoA reductase) is reported as “significantly reversed”, the eNOS (eNOS) is reported as 155.16 ± 14.8% and the PDE-5A (PDE-5A) is reported as 64.5 ± 4.5%. For the same compound, the body weight (mice fed a HFD; drinking 2.5 mg/200 ml water, protection and treatment groups) was “decreased”, the “fatty liver (gross morphology)” value (mice fed a HFD; protective group, more prominent than in the treatment group) was “markedly decreased” and the ROCKII (ROCKII) was 42.5 ± 6.3%. For the same compound, the body-weight gain (mice fed with HFD; KMUP-1 HCl 2.5, 5 mg/kg p.o., simvastatin 5 mg/kg p.o., compared to control HFD group, p<0.05) was “reduced”, the HDL chol. (mice fed with HFD; dose 2.5 mg/kg) was 103.6 ± 4.2 mg/dL and the LDL chol. (mice fed with HFD; dose 2.5 mg/kg) was 14.2 ± 1.4 mg/dL. The TG (mice fed with HFD; dose 2.5 mg/kg) was 74.5 ± 5.1 mg/dL, the Tot. chol. (mice fed with HFD; dose 2.5 mg/kg) was 133 ± 5.1 mg/dL and the HDL chol. (mice fed with HFD; dose 5 mg/kg) was 118.3 ± 5.7 mg/dL. The LDL chol. (mice fed with HFD; dose 5 mg/kg) was 14.2 ± 2.2 mg/dL, the TG (mice fed with HFD; dose 5 mg/kg) was 72.67 ± 4.7 mg/dL and the Tot. chol. (mice fed with HFD; dose 5 mg/kg) was 125.5 ± 9.8 mg/dL. The “hepatic LDLRs (IHC)” value (LDLRs) was “increased”.
